One data set has as its target Mammalian Cathepsin S (Homo sapiens, UniProt P25774). Kind of data set: Ki competitive inhibition, mammalian cathepsin S. In kind it is biochemical. As for the experimental part: (§1) Cathepsin S (Mammalian, murine and rat)
(§2) Assays were performed in 100 mM sodium phosphate, 100 mM NaCl, pH 6.5 (buffer) in white 384 well plates (Coming Costar). Eight inhibitors were assayed per plate.
(§3) Inhibitor dilutions were performed on a 96 well V-bottomed polypropylene plate (Corning Costar). 100 μl of buffer was placed in wells 2-5 and 7-12 of rows A, B, C and D. Sufficient of each inhibitor at 10 mM in DMSO was placed into wells A1-D1 and A6-D6 to give the desired final concentration when the volume in the well was made up to 200 μl with buffer. Column 1 was made up to 200 μl with buffer, mixed by aspirating and dispensing 100 μl in the well, and 100 μl transferred to column 2. The pipette tips were changed and the mixing and transferral repeated to column 5. This process was repeated for columns 6-10.
(§4) Substrate dilutions were performed on a 96 deep well polypropylene plate (Beckman Coulter). 280 μl of buffer was placed in wells B-H of columns 1 and 2.70 μl of 10 mM boc-Val-Leu-Lys-AMC was placed in A1 and A2. 2×250 μl of buffer was added to wells A1 and A2, mixed by aspirating and dispensing 280 μl in the well, and 280 μl transferred to row B. The pipette tips were changed and the process repeated down the plate to row H.
(§5) Column 1 of the substrate dilution plate was distributed at 10 μl per well into alternate rows beginning at row A. Column 2 was distributed to alternate rows beginning at row B. Row A of the inhibitor dilution plate was distributed at 10 μl per well to alternate rows and columns starting at A1. Row B was distributed to alternate rows and columns starting at A2. Row C was distributed to alternate rows and columns starting at B1 and row D was distributed to alternate rows and columns starting at B2. The assay was started by the addition of 30 μl per well of 20 nM cathepsin S in buffer containing 10 mM 2-mercaptoethanol.
(§6) Data were saved as text files and imported into Excel. The initial rates were determined by linear regression and then fitted to the competitive inhibition equation using SigmaPlot.

The target of another data set is Murine Cathepsin S (Mus musculus, UniProt O70370). Kind of data set: Ki competitive inhibition, murine cathepsin S. The class given is biochemical. As for the experimental part: as §1, §2, §3, §4, §5, §6
A further data set has as its target Rat Cathepsin S (Rattus norvegicus, UniProt Q02765). The data set can be described thus: Ki competitive inhibition, rat cathepsin S. In kind it is biochemical. As for the experimental part: as §1, §2, §3, §4, §5, §6
A further data set addresses Mammalian Cathepsin L (Homo sapiens, UniProt P07711). The data set can be described thus: Ki competitive inhibition, cathepsin L. The class given is biochemical. As for the experimental part:
as §6
(§7) Assays were performed essentially as above. For cathepsin L, the buffer used was 100 mM sodium acetate, 1 mM EDTA, pH 5.5 and the substrate was D-Val-Leu-Lys-AMC with a highest concentration of 100 μM. For cathepsin K, the buffer used was 100 mM MES/Tris, 1 mM EDTA, pH 7.0 and the substrate was D-Ala-Leu-Lys-AMC with a highest concentration of 250 μM.

A further data set addresses T1, Mammalian Cathepsin K (Homo sapiens, UniProt P43235).
T1 sequence (P43235 115-329): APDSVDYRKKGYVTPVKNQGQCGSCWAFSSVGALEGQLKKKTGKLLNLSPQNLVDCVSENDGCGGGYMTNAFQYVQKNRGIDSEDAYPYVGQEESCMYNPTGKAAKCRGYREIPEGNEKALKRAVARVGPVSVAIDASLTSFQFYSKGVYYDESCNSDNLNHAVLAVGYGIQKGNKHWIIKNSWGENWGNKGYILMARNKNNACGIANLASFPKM
The data set can be described thus: Ki competitive inhibition, cathepsin K. The class given is biochemical. Here is the method: as §7
Convenient assays for cathepsin K arere carried out using human recombinant enzyme. Standard assay conditions for the determination of kinetic constants used a fluorogenic peptide substrate, typically H-D-Ala-Leu-Lys-AMC, and were determined in either 100 mM Mes/Tris, pH 7.0 containing 1 mM EDTA and 10 mM 2-mercaptoethanol or 100 mM Na acetate, pH 5.5 containing 5 mM EDTA and 20 mM cysteine. The enzyme concentration used was 5 nM. The stock substrate solution was prepared at 10 mM in DMSO. Screens were carried out at a fixed substrate concentration of 60 μM and detailed kinetic studies with doubling dilutions of substrate from 250 μM. The total DMSO concentration in the assay was kept below 3%. All assays were conducted at ambient temperature. Product fluorescence (excitation at 390 nm, emission at 460 nm) was monitored with a Labsystems Fluoroskan Ascent fluorescent plate reader. Product progress curves were generated over 15 minutes following generation of AMC product.
Potential inhibitors are screened using the above assay with variable concentrations of test compound. Reactions were initiated by addition of enzyme to buffered solutions of substrate and inhibitor. Ki values were calculated according to equation 1 [formula] where ν0 is the velocity of the reaction, V is the maximal velocity, S is the concentration of substrate with Michaelis constant of KM, and I is the concentration of inhibitor. Determination of Falcipain 2 Proteolytic Catalytic Activity

The nature of data set [1]: Oral bioavailability in mice. As to conditions: mouse, in vivo, dosed i.v. and orally at 10 mg/kg to mice, read-out: oral bioavailability % (F).
[2] abbreviates: Table 2, Human, read-out: Ki (μM) Human, Mammalian Cathepsin S.
Where [3] appears, read: Table 2, Mouse, read-out: Ki (μM) Mouse, Murine Cathepsin S.
The mark [4] stands for this setting: Table 2, Rat, read-out: Ki (μM) Rat, Rat Cathepsin S.
The mark [5] stands for this setting: Table 1, first line of each CAP-P2 block, read-out: Ki competitive inhibition measurements vs Mammalian Cathepsin S.
Where [6] appears, read: Table 1, second line of each CAP-P2 block, read-out: Ki competitive inhibition measurements vs Mammalian Cathepsin L.
[7] abbreviates: Table 1, third line of each CAP-P2 block, read-out: Ki competitive inhibition measurements vs Mammalian Cathepsin K.

The term Ki denotes a dissociation constant, usually derived from enzyme kinetics or from competition with a known ligand. As a reminder, the bioavailability is the share of a dose that reaches the circulation, judged against a reference dose that is usually intravenous.

Where two headings read alike, the source gives them in different places. A value given as a limit tells only on which side of the number the result lay.

Mammalian Cathepsin L, sequence (P07711 114-333): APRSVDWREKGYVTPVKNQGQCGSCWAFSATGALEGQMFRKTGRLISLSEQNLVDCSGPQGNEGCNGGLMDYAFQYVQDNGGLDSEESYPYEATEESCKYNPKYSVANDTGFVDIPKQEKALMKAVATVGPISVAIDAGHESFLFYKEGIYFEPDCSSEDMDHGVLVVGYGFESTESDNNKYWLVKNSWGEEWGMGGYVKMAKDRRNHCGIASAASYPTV
Mammalian Cathepsin S, sequence (P25774 115-331): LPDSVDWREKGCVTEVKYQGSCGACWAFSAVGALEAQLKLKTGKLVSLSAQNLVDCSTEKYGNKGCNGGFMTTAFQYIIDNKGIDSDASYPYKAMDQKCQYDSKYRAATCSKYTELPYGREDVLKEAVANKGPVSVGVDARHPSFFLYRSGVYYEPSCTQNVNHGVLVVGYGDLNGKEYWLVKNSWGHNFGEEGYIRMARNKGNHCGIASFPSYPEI
Rat Cathepsin S, sequence (Q02765 113-330): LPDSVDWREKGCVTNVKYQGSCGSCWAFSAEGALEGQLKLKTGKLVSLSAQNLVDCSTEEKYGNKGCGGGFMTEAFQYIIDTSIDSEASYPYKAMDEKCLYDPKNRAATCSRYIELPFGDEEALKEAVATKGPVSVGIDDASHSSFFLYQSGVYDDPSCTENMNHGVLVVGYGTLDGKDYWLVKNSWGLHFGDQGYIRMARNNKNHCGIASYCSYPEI

Regarding `CC[C@@H]1OCC(=O)[C@H]1NC(=O)[C@H](CC(C)(C)C)NC(=O)c1ccoc1` [drawing 79/drawing 78 X = O], the figures for the Ki on Mammalian Cathepsin S (setting [2]), on Murine Cathepsin S (setting [3]) and on Rat Cathepsin S (setting [4]) were 0.053 µM, 0.039 µM and 0.058 µM, respectively.
Take `C[C@@H]1OCC(=O)[C@H]1NC(=O)[C@H](CC(C)(C)C)NC(=O)c1ccoc1` [CAP8-L-tBu-Ala/drawing 71, Furan-3-carboxylic acid[3,3-dimethyl-1S-(2S-methyl-4-oxo-tetrahydrofuran-3S-ylcarbamoyl)butyl]amide]: the inhibition constant Ki was 0.1 µM at Mammalian Cathepsin S (setting [5]); 0.13 µM on Mammalian Cathepsin S (setting [2]); 0.1 µM on Murine Cathepsin S (setting [3]); 0.211 µM at Rat Cathepsin S (setting [4]); more than 100000 nM on Mammalian Cathepsin L (setting [6]); 7300 nM at Mammalian Cathepsin K (setting [7]). For the same compound, the bioavailability in data set [1] amounted to 58%.
`CC(C)C[C@H](NC(=O)c1ccc(O)cc1)C(=O)N[C@@H]1COCC1=O` [CAP1-L-Leu/drawing 73]: the results for the Ki at Mammalian Cathepsin S (setting [5]), at Mammalian Cathepsin L (setting [6]) and on Mammalian Cathepsin K (setting [7]) were 0.27 µM, 390 nM and 70 nM, respectively.
`O=C(N[C@@H](Cc1ccc(O)cc1)C(=O)N[C@H]1COCC1=O)c1ccccc1` [CAP3-L-Tyr/drawing 72]: the values for the Ki at Mammalian Cathepsin S (setting [5]), at Mammalian Cathepsin L (setting [6]) and at Mammalian Cathepsin K (setting [7]) were 1.6 µM, 250 nM and more than 100000 nM, respectively.
Regarding `CC(C)CC[C@H](NC(=O)N1CCOCC1)C(=O)N[C@@H]1C(=O)CO[C@H]1C` [CAP9-L-hLeu/drawing 71], the Ki at Mammalian Cathepsin S (setting [5]) was 0.52 µM; on Mammalian Cathepsin L (setting [6]), more than 100000 nM; at Mammalian Cathepsin K (setting [7]) it was more than 100000 nM.
With `CC(C)CC[C@H](NC(=O)c1ccoc1)C(=O)N[C@@H]1C(=O)CO[C@H]1C` [CAP8-L-hLeu/drawing 71], the results for the Ki on Mammalian Cathepsin S (setting [5]), at Mammalian Cathepsin L (setting [6]) and on Mammalian Cathepsin K (setting [7]) were 0.37 µM, more than 100000 nM and more than 100000 nM, respectively.
Turning to `Cc1cc(C(=O)N[C@@H](CC(C)C)C(=O)N[C@@H]2C(=O)CO[C@H]2C)oc1C` [CAP6-L-Leu/drawing 71], the inhibition constant Ki was found to be 0.68 µM at Mammalian Cathepsin S (setting [5]), 670 nM at Mammalian Cathepsin L (setting [6]) and 2750 nM on Mammalian Cathepsin K (setting [7]).
Turning to `CC(C)C[C@H](NC(=O)c1ccc(N(C)C)cc1)C(=O)N[C@H]1C(=O)CO[C@H]1C` [CAP7-L-Leu/drawing 70], the Ki on Mammalian Cathepsin S (setting [5]) was determined as 4.2 µM; at Mammalian Cathepsin L (setting [6]), 6800 nM; on Mammalian Cathepsin K (setting [7]), 170 nM.
As for `CC[C@@H]1OCC(=O)[C@H]1NC(=O)[C@H](CC(C)(C)C(C)C)NC(=O)c1ccoc1` [CAP8-Hybrid3/drawing 68, Furan-3-carboxylic acid[3,3,4-trimethyl-1S-(2S-ethyl-4-oxo-tetrahydrofuran-3-ylcarbamoyl)pentyl]amide], the Ki at Mammalian Cathepsin S (setting [5]) was 0.015 µM; on Mammalian Cathepsin S (setting [2]), 0.015 µM; at Mammalian Cathepsin S (read-out: Ki mammalian cath S) it was 0.015 µM; at Murine Cathepsin S (read-out: Ki murine cath S), 0.149 µM; on Rat Cathepsin S (read-out: Ki rat cath S) it was 0.271 µM; on Mammalian Cathepsin L (setting [6]), more than 100000 nM. Moreover, the Ki was more than 100000 nM on Mammalian Cathepsin L (read-out: Ki cathepsin L) and 5500 nM at Mammalian Cathepsin K (read-out: Ki cathepsin K).
In the case of `CCCCC(NC(=O)c1ccc(N(C)C)cc1)C(=O)NC1C(=O)COC1C` [CAP7-L-Nle/drawing 70], the Ki on Mammalian Cathepsin S (setting [5]) came out at 6.8 µM; on Mammalian Cathepsin L (setting [6]), 46700 nM; on Mammalian Cathepsin K (setting [7]) it was 3100 nM.
Turning to `CCCC[C@H](NC(=O)c1ccc(N(C)C)cc1)C(=O)N[C@@H]1C(=O)CO[C@H]1C` [CAP7-L-Nle/drawing 71], the Ki at Mammalian Cathepsin S (setting [5]) was found to be 6.2 µM; at Mammalian Cathepsin L (setting [6]), 49900 nM; at Mammalian Cathepsin K (setting [7]), 1300 nM.
Consider `C[C@H]1OCC(=O)[C@H]1NC(=O)[C@H](CC(C)(C)C)NC(=O)c1cccs1` [CAP5-L-tBu-Ala/drawing 69], for which the Ki at Mammalian Cathepsin S (setting [5]) was 0.47 µM; on Mammalian Cathepsin L (setting [6]), 24600 nM; at Mammalian Cathepsin K (setting [7]) it was 650 nM.
Consider `CCn1nc(C)cc1C(=O)N[C@@H](Cc1ccc(O)cc1)C(=O)N[C@@H]1COCC1=O` [CAP10-L-Tyr/drawing 73], for which the Ki on Mammalian Cathepsin S (setting [5]) is 3.7 µM; on Mammalian Cathepsin L (setting [6]), 100 nM; at Mammalian Cathepsin K (setting [7]), more than 100000 nM.
As to `CCn1nc(C)cc1C(=O)N[C@@H](CC(C)C)C(=O)N[C@@H]1C(=O)CO[C@@H]1C` [CAP10-L-Leu/drawing 69], the Ki on Mammalian Cathepsin S (setting [5]) was determined as 1.3 µM; on Mammalian Cathepsin L (setting [6]) it was 710 nM; at Mammalian Cathepsin K (setting [7]), 3000 nM.
With `CC(C)CC[C@H](NC(=O)N1CCOCC1)C(=O)N[C@@H]1C(=O)CO[C@@H]1C` [CAP9-L-hLeu/drawing 69], the values for the Ki at Mammalian Cathepsin S (setting [5]), at Mammalian Cathepsin L (setting [6]) and at Mammalian Cathepsin K (setting [7]) were 0.78 µM, 48700 nM and 34300 nM, respectively.
Take `CC1OCC(=O)C1NC(=O)C(CC(C)(C)C)NC(=O)c1ccsc1` [CAP11-L-tBu-Ala/drawing 71]: the Ki at Mammalian Cathepsin S (setting [5]) stood at 0.095 µM; on Mammalian Cathepsin S (setting [2]), 0.095 µM; on Murine Cathepsin S (setting [3]), 0.048 µM; at Rat Cathepsin S (setting [4]) it was 0.084 µM; on Mammalian Cathepsin L (setting [6]), 55200 nM; at Mammalian Cathepsin K (setting [7]), 1550 nM.
In the case of `CCn1nc(C)cc1C(=O)N[C@@H](Cc1ccc(O)cc1)C(=O)N[C@@H]1C(=O)CO[C@H]1C` [CAP10-L-Tyr/drawing 71], the Ki at Mammalian Cathepsin S (setting [5]) was 4.1 µM; on Mammalian Cathepsin L (setting [6]), 450 nM; at Mammalian Cathepsin K (setting [7]) it was more than 100000 nM.
For `CC(C)CC[C@H](NC(=O)N1CCOCC1)C(=O)N[C@H]1C(=O)CO[C@H]1C` [CAP9-L-hLeu/drawing 70] the same measures were 0.7 µM, more than 100000 nM and more than 100000 nM.
As to `CC(C)CC[C@H](NC(=O)c1ccoc1)C(=O)N[C@H]1C(=O)CO[C@H]1C` [CAP8-L-hLeu/drawing 70], the Ki at Mammalian Cathepsin S (setting [5]) was 0.45 µM; on Mammalian Cathepsin L (setting [6]), more than 100000 nM; at Mammalian Cathepsin K (setting [7]) it was more than 100000 nM.
On to `C[C@@H]1OCC(=O)[C@@H]1NC(=O)[C@H](CC(C)(C)C)NC(=O)c1ccoc1` [CAP8-L-tBu-Ala/drawing 70], for which the Ki on Mammalian Cathepsin S (setting [5]) was 0.2 µM; on Mammalian Cathepsin L (setting [6]) it was more than 100000 nM; at Mammalian Cathepsin K (setting [7]), 19900 nM.
The matching figures for `C[C@H]1OCC(=O)[C@H]1NC(=O)[C@H](Cc1ccc(O)cc1)NC(=O)c1ccccc1` [CAP3-L-Tyr/drawing 69]: 1.1 µM, 170 nM and more than 100000 nM.
